Measured values taken from ChEMBL document CHEMBL3621041, “Optimization of a Novel Binding Motif to (E)-3-(3,5-Difluoro-4-((1R,3R)-2-(2-fluoro-2-methylpropyl)-3-methyl-2,3,4,9-tetrahydro-1H-pyrido[3,4-b]indol-1-yl)phenyl)acrylic Acid (AZD9496), a Potent and Orally Bioavailable Selective Estrogen Receptor Downregulator and Antagonist” (J Med Chem, 2015).
Converted amounts (≈) assume the structure as drawn. The source made the active and inactive calls. The rule behind the calls is not given here.

Assays:
[1] = molecular target: T1, Progesterone receptor (Homo sapiens, UniProt P06401); assay: Agonist activity at progesterone receptor in human MCF7 cells; type: cell-based
T1 sequence (P06401 whole entry): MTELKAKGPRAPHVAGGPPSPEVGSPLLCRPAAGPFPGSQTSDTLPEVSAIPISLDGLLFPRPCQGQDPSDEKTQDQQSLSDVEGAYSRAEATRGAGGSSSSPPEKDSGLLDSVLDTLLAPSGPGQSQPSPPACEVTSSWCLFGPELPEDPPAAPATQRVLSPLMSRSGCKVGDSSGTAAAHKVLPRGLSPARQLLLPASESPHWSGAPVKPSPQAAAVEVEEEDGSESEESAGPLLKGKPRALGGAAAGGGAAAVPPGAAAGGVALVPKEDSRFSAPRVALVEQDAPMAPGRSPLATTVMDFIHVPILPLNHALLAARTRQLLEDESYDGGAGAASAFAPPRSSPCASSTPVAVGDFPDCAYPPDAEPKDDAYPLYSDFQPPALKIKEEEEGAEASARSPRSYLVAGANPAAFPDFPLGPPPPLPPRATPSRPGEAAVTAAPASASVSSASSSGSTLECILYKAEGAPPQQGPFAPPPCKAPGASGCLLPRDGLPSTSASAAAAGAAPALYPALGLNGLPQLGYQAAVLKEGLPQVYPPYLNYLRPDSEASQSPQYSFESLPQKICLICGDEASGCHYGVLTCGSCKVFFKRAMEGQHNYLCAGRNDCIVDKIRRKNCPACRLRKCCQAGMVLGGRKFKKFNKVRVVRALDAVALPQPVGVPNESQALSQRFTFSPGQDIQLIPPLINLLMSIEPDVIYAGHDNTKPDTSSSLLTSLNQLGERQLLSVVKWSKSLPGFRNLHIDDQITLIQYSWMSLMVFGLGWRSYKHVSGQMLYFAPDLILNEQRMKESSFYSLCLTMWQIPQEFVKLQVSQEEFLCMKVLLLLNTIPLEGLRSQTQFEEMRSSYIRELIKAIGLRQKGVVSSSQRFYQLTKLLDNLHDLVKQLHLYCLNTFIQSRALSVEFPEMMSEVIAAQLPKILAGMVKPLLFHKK

[2] = test system: MCF7; assay: cells; conditions: Homo sapiens, MCF7, read-out: pIC50 (converted)
Description: Antiproliferative activity against human MCF7 cells

[3] = molecular target: T2, Progesterone receptor (Homo sapiens) (UniProt P06401); assay: Agonist activity at progesterone receptor (unknown origin) at 100 uM
T2 sequence (whole entry): T1 sequence (P06401 whole entry)

[4] = molecular target: T3, Estrogen receptor (Homo sapiens, UniProt P03372)
T3 sequence (P03372 whole entry): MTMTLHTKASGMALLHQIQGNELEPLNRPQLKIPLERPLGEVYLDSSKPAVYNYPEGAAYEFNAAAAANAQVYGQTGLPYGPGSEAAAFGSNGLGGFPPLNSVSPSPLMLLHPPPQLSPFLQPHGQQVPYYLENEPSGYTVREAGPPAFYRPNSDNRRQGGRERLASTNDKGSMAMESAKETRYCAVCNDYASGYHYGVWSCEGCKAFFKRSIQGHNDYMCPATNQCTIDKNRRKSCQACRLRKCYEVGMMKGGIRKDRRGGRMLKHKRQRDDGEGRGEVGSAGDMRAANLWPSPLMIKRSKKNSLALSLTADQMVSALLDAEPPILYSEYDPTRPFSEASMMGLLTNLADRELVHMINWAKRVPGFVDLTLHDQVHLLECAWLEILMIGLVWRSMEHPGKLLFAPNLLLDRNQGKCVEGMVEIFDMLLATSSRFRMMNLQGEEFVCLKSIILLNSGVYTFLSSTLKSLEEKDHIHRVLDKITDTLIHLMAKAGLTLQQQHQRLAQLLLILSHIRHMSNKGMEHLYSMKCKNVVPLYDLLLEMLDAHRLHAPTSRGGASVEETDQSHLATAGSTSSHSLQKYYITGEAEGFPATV
Description: Antagonist activity at ERalpha receptor in human MCF7 cells

[5] = molecular target: T3, Estrogen receptor; remark: listed apart in the source
Description: Binding affinity to ERalpha receptor (unknown origin)

[6] = Fraction unbound in Han Wistar rat 10% plasma by equilibrium dialysis; type: ADME, cell-free
[7] = molecular target: T4, Glucocorticoid receptor (Homo sapiens, UniProt P04150); assay: Binding affinity to glucocorticoid receptor (unknown origin); conditions: read-out: pIC50 (converted)
T4 sequence (P04150 whole entry): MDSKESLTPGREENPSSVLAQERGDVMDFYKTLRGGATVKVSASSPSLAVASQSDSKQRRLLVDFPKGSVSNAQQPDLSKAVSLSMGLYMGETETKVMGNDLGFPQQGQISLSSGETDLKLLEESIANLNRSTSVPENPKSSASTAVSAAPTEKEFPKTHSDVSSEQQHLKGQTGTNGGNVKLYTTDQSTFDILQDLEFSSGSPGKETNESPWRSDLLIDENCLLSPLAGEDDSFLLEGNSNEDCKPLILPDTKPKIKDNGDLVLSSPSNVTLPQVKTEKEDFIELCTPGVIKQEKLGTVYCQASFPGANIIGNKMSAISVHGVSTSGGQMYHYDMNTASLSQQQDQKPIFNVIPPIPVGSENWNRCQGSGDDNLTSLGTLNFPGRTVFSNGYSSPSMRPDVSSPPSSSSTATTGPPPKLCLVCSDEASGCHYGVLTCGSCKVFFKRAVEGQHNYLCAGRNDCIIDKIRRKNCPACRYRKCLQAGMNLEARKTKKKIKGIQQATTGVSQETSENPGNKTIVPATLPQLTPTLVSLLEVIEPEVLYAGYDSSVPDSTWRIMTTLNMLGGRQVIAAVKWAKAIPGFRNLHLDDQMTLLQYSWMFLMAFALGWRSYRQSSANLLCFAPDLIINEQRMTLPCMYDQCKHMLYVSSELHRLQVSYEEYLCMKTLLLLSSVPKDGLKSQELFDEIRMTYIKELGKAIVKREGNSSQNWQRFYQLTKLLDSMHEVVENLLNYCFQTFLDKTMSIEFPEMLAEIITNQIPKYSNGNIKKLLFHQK

[8] = molecular target: T1, Progesterone receptor; assay: Binding affinity to progesterone receptor (unknown origin)
[9] = Lipophilicity, log D of the compound at pH 7.4; type: physicochemical; conditions: buffer
[10] = Intrinsic clearance in rat cryopreserved hepatocytes assessed per 10^6 cells; type: ADME, cell-based, Hepatocyte; conditions: read-out: CLH
[11] = Intrinsic clearance in human cryopreserved hepatocytes assessed per 10^6 cells; type: ADME, cell-based, Hepatocyte; conditions: read-out: CLH
[12] = Thermodynamic solubility of the compound in 0.1 M phosphate buffer at pH 7.4 after 24 hrs; type: physicochemical; conditions: read-out: Therm_solubility
[13] = molecular target: T5, Androgen receptor (Homo sapiens, UniProt P10275); assay: Binding affinity to androgen receptor (unknown origin); conditions: read-out: pIC50 (converted)
T5 sequence (P10275 whole entry): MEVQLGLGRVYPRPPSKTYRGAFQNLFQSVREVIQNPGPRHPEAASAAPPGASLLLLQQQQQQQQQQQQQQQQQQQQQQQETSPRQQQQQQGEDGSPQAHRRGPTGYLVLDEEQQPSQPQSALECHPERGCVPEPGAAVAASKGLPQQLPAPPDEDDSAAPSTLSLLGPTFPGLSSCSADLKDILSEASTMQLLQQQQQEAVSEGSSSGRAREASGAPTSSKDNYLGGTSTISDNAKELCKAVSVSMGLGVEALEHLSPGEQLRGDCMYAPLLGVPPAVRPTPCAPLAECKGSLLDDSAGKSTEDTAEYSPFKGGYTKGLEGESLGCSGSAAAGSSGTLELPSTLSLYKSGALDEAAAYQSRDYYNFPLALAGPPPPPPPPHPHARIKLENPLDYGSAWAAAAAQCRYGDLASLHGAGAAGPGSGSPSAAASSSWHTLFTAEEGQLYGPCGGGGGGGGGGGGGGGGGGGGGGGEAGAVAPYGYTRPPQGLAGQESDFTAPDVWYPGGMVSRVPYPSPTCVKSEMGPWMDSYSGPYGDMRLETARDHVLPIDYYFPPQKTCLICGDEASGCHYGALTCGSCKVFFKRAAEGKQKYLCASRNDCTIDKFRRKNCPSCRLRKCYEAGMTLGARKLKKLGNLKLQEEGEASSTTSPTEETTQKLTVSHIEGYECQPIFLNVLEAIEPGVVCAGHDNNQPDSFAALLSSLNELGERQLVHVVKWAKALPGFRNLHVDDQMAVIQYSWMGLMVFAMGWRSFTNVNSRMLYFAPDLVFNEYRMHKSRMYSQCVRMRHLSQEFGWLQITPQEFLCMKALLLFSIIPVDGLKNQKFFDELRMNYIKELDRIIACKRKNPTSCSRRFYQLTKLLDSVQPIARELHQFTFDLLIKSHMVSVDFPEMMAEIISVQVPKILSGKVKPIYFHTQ

[14] = Fraction unbound in human 10% plasma by equilibrium dialysis; type: ADME, cell-free
[15] = Oral bioavailability in Han Wistar rat at 5 umol/kg; type: ADME, organism-based; conditions: in vivo
[16] = Clearance in Han Wistar rat at 2 umol/kg, iv and 5 umol/kg, po; type: ADME, organism-based; conditions: in vivo
[17] = Volume of distribution at steady state in Han Wistar rat at 2 umol/kg, iv and 5 umol/kg, po; type: ADME, organism-based; conditions: in vivo, read-out: Vdss

Row | Compound | IC50 [1] [nM] | IC50 [2] [nM] | IC50 [4] [nM] | IC50 [5] [nM] | other results
1 | CC/C(=C(\c1ccccc1)c1ccc(/C=C/C(=O)O)cc1)c1ccccc1 | > 100000 | 295 | – | – | percent agonist activity [3]: inactive
2 | C[C@@H]1Cc2c([nH]c3ccccc23)[C@@H](c2ccc(Cl)cc2)N1CCO | > 100000 | 13800 | 85.1 | 39.8 | percent agonist activity [3]: 15%
3 | OCCN1CCc2c([nH]c3ccccc23)C1c1ccc(Cl)cc1 (racemic) | > 100000 | – | 1170 | 2040 | fraction unbound [6]: 0.045; IC50 [7]: > 31600 nM; IC50 [8]: > 31600 nM; logD [9]: 3.7; hepatocyte CLint [10]: 300 µL/min/1e6 cells; hepatocyte CLint [11]: 70 µL/min/1e6 cells; solubility thermodynamic at 24 h [12]: 15 µM (≈ 4.9 µg/mL); IC50 [13]: > 31600 nM
4 | C[C@@H]1Cc2c([nH]c3ccccc23)[C@@H](c2ccc(/C=C/C(=O)O)cc2)N1CCO | > 100000 | 813 | 1320 | 692 | –
5 | C[C@@H]1Cc2c([nH]c3ccccc23)[C@@H](c2ccc(Cl)cc2)N1CCC(=O)O | > 100000 | > 25100 | 776 | 1780 | percent agonist activity [3]: 15%
6 | C[C@H](CO)CN1[C@H](c2ccc(/C=C/C(=O)O)cc2)c2[nH]c3ccccc3c2C[C@H]1C | > 100000 | 22.4 | 46.8 | 69.2 | fraction unbound [6]: 0.091; logD [9]: 1.6; hepatocyte CLint [10]: 21 µL/min/1e6 cells; hepatocyte CLint [11]: 26 µL/min/1e6 cells; fraction unbound [14]: 0.046; solubility thermodynamic at 24 h [12]: > 1400 µM
7 | C[C@@H](CO)CN1[C@H](c2ccc(/C=C/C(=O)O)cc2)c2[nH]c3ccccc3c2C[C@H]1C | > 100000 | – | 45.7 | 97.7 | –
8 | C[C@]12CC[C@@H]3c4ccc(O)cc4C[C@@H](CCCCCCCCC[S+]([O-])CCCC(F)(F)C(F)(F)F)[C@H]3[C@@H]1CC[C@@H]2O (some centres not stated) [FULVESTRANT] | > 100000 | 0.1 | – | – | –
9 | CC/C(=C(\c1ccccc1)c1ccc(OCCN(C)C)cc1)c1ccccc1 [TAMOXIFEN] | – | 57.5 | – | – | –
10 | CCC(=C(c1ccc(O)cc1)c1ccc(OCCN(C)C)cc1)c1ccccc1 | > 100000 | 0.537 | – | – | –

More lines, main results first:

Row | IC50 [1] [nM] | IC50 [2] [nM] | IC50 [4] [nM] | IC50 [5] [nM] | Compound | other results
11 | > 3160 | 0.324 | – | – | C[C@@H]1Cc2c([nH]c3ccccc23)[C@@H](c2ccc(/C=C/C(=O)O)cc2)N1CC(C)(C)F | –
12 | > 31600 | – | – | – | CC/C(=C(\c1ccc(O)cc1)c1ccc(/C=C/C(=O)O)cc1)c1ccccc1 | percent agonist activity [3]: inactive
13 | > 3160 | 0.229 | 0.417 | 0.708 | CC(C)CN1[C@H](c2c(F)cc(/C=C/C(=O)O)cc2F)c2[nH]c3ccccc3c2C[C@H]1C | –
14 | 33.1 | > 31600 | 43.7 | 22.4 | C[C@@H]1Cc2c([nH]c3ccc(O)cc23)[C@@H](c2ccc(Cl)cc2)N1CCO | –
15 | > 31600 | – | 3720 | 13800 | O=C(O)CCN1CCc2c([nH]c3ccccc23)C1c1ccc(Cl)cc1 (racemic) | fraction unbound [6]: 0.072; bioavailability [15]: 85%; clearance [16]: 4 mL/min/kg; logD [9]: 1.6; hepatocyte CLint [10]: 29 µL/min/1e6 cells; hepatocyte CLint [11]: 19 µL/min/1e6 cells; Vd [17]: 0.6 L/kg; solubility thermodynamic at 24 h [12]: > 1600 µM
16 | 12.9 | > 31600 | 30.2 | 70.8 | C[C@@H]1Cc2c([nH]c3ccccc23)[C@@H](c2ccc(Cl)cc2)N1C[C@H](C)C(=O)O | fraction unbound [6]: 0.032; bioavailability [15]: 42%; clearance [16]: 14 mL/min/kg; logD [9]: 2.8; hepatocyte CLint [10]: 82 µL/min/1e6 cells; hepatocyte CLint [11]: 23 µL/min/1e6 cells; Vd [17]: 0.34 L/kg; fraction unbound [14]: 0.015; solubility thermodynamic at 24 h [12]: 1440 µM (≈ 551 µg/mL)
